Reference: US10105348B2, “Use of 2-(5S-methyl-2-oxo-4R-phenyl-pyrrolidin-1-yl)-acetamide in the treatment of seizures” (Latvian Institute of Organic Synthesis, priority 2015, dated 2018)

Experiments:
[1] = system: BIC-induced clonic and tonic seizures; experiment: Timed i.v. bicucculine (BIC) infusion seizure threshold test; assay type: in vivo; conditions: male ICR mice
Procedure: (§1) Male ICR mice (Harlan Laboratories BV, Netherlands, ICR (CD-1)) weighing 23-25 g were housed under standard conditions (21-23° C., 50%±10% relative humidity, 12 h light-dark cycle) with unlimited access to standard food (R70 diet, Lactamin AB, Sweden) and water. All experimental procedures were carried out in accordance with guidelines of the EU Directive 2010/63/EU and were approved by the Ethics Council of Animal Protection at the Veterinary and Food Service, Riga, Latvia.
(§2) To accurately detect even slight modulatory effects on convulsive tendencies, we employed the more sensitive intravenous (i.v.) administration route of pentylenetetrazol (PTZ) administration (Loscher W, Honack D, Fassbender C P, Nolting B (1991). The role of technical, biological and pharmacological factors in the laboratory evaluation of anticonvulsant drugs. III. Pentylenetetrazole seizure models. Epilepsy Res 8:171-189; Mandhane S N, Aavula K, Rajamannar T (2007). Timed pentylenetetrazol infusion test: a comparative analysis with s.c.PTZ and MES models of anticonvulsant screening in mice. Seizure 16:636-644) and used bicucculine (BIC) to inhibit the GABA pathway and to induce seizures (Meldrum B S (1975). Epilepsy and gamma-aminobutyric acid-mediated inhibition. Int Rev Neurobiol 17:1-36.). Chemoconvulsant-induced clonic and tonic seizures were initiated by inserting a 30-gauge needle into the tail vein of mice and infusing PTZ 1% or BIC 0.01% at a constant rate of 10 μl/1 s to restrained animals. Infusion was halted when forelimb clonus followed by tonic seizures of the full body were observed. Minimal doses of PTZ or BIC (mg/kg of mouse weight) necessary to induce clonic and tonic seizures were considered as an index of seizure threshold.
(§3) 2-(5S-Methyl-2-oxo-4R-phenyl-pyrrolidin-1-yl)-acetamide (E1R) was administered i.p. at doses of 10 and 50 mg/kg. The test session was started 60 min after the administration of E1R or saline.

[2] = system: PTZ-induced clonic and tonic seizures; experiment: Timed i.v. pentylenetetrazol (PTZ) infusion seizure threshold test; assay type: in vivo; conditions: male ICR mice
Procedure: as §1, §2, §3

[3] = E1R 10 mg/kg i.p. 60 min before 0.01% BIC i.v. infusion
[4] = E1R 50 mg/kg i.p. 60 min before 0.01% BIC i.v. infusion
[5] = E1R 10 mg/kg i.p. 60 min before 1% PTZ i.v. infusion
[6] = E1R 50 mg/kg i.p. 60 min before 1% PTZ i.v. infusion

Compound: C[C@H]1[C@@H](c2ccccc2)CC(=O)N1CC(N)=O [E1R, 2-(5S-Methyl-2-oxo-4R-phenyl-pyrrolidin-1-yl)-acetamide]
- Dose of BIC, mg/kg ± SEM, Clonic seizure (threshold) [1, 3]: 0.42 ± 0.02 mg/kg
- Dose of BIC, mg/kg ± SEM, Tonic seizure (threshold) [1, 3]: 0.88 ± 0.08 mg/kg
- Dose of BIC, mg/kg ± SEM, Clonic seizure (threshold) [1, 4]: 0.48 ± 0.03 mg/kg
- Dose of BIC, mg/kg ± SEM, Tonic seizure (threshold) [1, 4]: 1.15 ± 0.09 mg/kg
- Clonic and tonic seizures-inducing doses of BIC, change versus saline (in words) ([1]; E1R 50 mg/kg i.p.): significant increased
- Dose of PTZ, mg/kg ± SEM, Clonic seizure (threshold) [2, 5]: 27 ± 2 mg/kg
- Dose of PTZ, mg/kg ± SEM, Tonic seizure (threshold) [2, 5]: 64 ± 6 mg/kg
- Induction of tonic seizures by PTZ, effect versus saline (in words) ([2]; E1R 10 mg/kg i.p.): significantly reduced the induction of tonic seizures
- Dose of PTZ, mg/kg ± SEM, Clonic seizure (threshold) [2, 6]: 30 ± 1 mg/kg
- Dose of PTZ, mg/kg ± SEM, Tonic seizure (threshold) [2, 6]: 80 ± 8 mg/kg
- Clonic and tonic seizures-inducing doses of PTZ, change versus saline (in words) ([2]; E1R 50 mg/kg i.p.): significant increased
